This note sets out measurements from patent US20030212116A1 (priority 1999, published 2003).

In turn, `COC(=O)Cc1ccccc1N=C1N(C)CC(=O)N1C` registered a melting point of 57 to 59 °C.
